Test results: patent publication US9833497B2, “Human originated EGF domain proteins and use of the same” (CHENGDU SOURCEBIO LIMITED-LIABILITY COMPANY, priority 2013, dated 2017)

Columns and labels:
Type in all cases: cell-based
Serratia marcescens = experiment: MIC against Gram-negative bacteria: Serratia marcescens; conditions: for MIC / MIC (μg/mL) S. marcescens: S. marcescens
Summary of the method: (§1)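 Two-fold serial dilutions of each purified human EGF domain protein, three replicate wells per level, were combined with bacteria at a final 5×10^5 CFU/mL in LB. Cultures were shaken at 175 rpm, 37° C. The MIC was taken as the minimum concentration preventing growth.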

Pseudomonas aeruginosa = experiment: MIC against Gram-negative bacteria: Pseudomonas aeruginosa; conditions: for MIC / MIC (μg/mL) P. aeruginosa: P. aeruginosa
Summary of the method: as §1

Citrobacter diversus = experiment: MIC against Gram-negative bacteria: Citrobacter diversus; conditions: for MIC / MIC (μg/mL) C. diversus: C. diversus
Summary of the method: as §1

Enterobacter cloacae = experiment: MIC against Gram-negative bacteria: Enterobacter cloacae; conditions: for MIC / MIC (μg/mL) E. cloacae: E. cloacae
Summary of the method: as §1

Proteus mirabilis = experiment: MIC against Gram-negative bacteria: Proteus mirabilis; conditions: for MIC / MIC (μg/mL) P. mirabilis: P. mirabilis
Summary of the method: as §1

E. coli BL21 = experiment: MIC against Gram-negative bacteria: E. coli BL21; conditions: for MIC / MIC (μg/mL) E. coli BL21: E. coli BL21
Summary of the method: as §1

Proteus vulgaris = experiment: MIC against Gram-negative bacteria: Proteus vulgaris; conditions: for MIC / MIC (μg/mL) P. vulgaris: P. vulgaris
Summary of the method: as §1

Klebsiella pneumonia = experiment: MIC against Gram-negative bacteria: Klebsiella pneumonia; conditions: for MIC / MIC (μg/mL) K. pneumonia: K. pneumonia
Summary of the method: as §1

E. coli DH5α = experiment: Antibacterial activity: MIC and growth curve against E. coli DH5α in 96-well plate; conditions: minimal inhibitory concentration against E. coli DH5α; 96-well plate, 5×10^5 CFU/mL, 37° C., judged after 8 h
Summary of the method: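 Log-phase DH5α (OD600 about 0.5, 37° C, 185 rpm in LB) was pelleted, resuspended in fresh LB and seeded at 5×10^5 CFU/mL with recombinant protein at 50, 25 and 12.5 μg/mL (two-fold series), in triplicate. Plates were shaken at 175 rpm, 37° C, and OD600 was read every 30 min. MIC was the lowest concentration with no growth.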

Aeromonas hydrophila = experiment: MIC against Gram-negative bacteria: Aeromonas hydrophila; conditions: for MIC / MIC (μg/mL) A. hydrophila: A. hydrophila
Summary of the method: as §1

Moraxella catarrhalis = experiment: MIC against Gram-negative bacteria: Moraxella catarrhalis; conditions: for MIC / MIC (μg/mL) M. catarrhalis: M. catarrhalis
Summary of the method: as §1

[1] = 10 h cultivation at 37° C., 5×10^5 CFU/mL, two-fold serial dilution
[2] = 10 h cultivation at 37° C., 5×10^5 CFU/mL
[3] = 96-well plate, 5×10^5 CFU/mL, 37° C., 10 h

PRT1142 (DVNKCKISPCLDEENCVYRTDGYNCLCAPGYTGINCE; listed as Homo sapiens)
MIC S. marcescens (Serratia marcescens; [1]): 50 µg/mL | MIC P. aeruginosa (Pseudomonas aeruginosa; [1]): 25 µg/mL | MIC C. diversus (Citrobacter diversus; [1]): 50 µg/mL | MIC E. cloacae (Enterobacter cloacae; [1]): 25 µg/mL | MIC P. mirabilis (Proteus mirabilis; [1]): 12.5 µg/mL | MIC E. coli BL21 (E. coli BL21; [1]): 50 µg/mL | MIC P. vulgaris (Proteus vulgaris; [1]): 25 µg/mL | MIC K. pneumonia (Klebsiella pneumonia; [1]): 12.5 µg/mL | MIC (E. coli DH5α): 25 µg/mL | MIC A. hydrophila (Aeromonas hydrophila; [1]): 25 µg/mL | MIC M. catarrhalis (Moraxella catarrhalis; [1]): 25 µg/mL

PRT418 (DINECSSSPCSQECANVYGSYQCYCRRGYQLSDVDGVTCE; listed as Homo sapiens)
MIC (Serratia marcescens; [2]): 50 µg/mL | MIC (Pseudomonas aeruginosa; [2]): 12.5 µg/mL | MIC (Citrobacter diversus; [2]): 50 µg/mL | MIC (Enterobacter cloacae; [2]): 12.5 µg/mL | MIC (Proteus mirabilis; [2]): 12.5 µg/mL | MIC (E. coli BL21; [2]): 12.5 µg/mL | MIC (Proteus vulgaris; [2]): 25 µg/mL | MIC (Klebsiella pneumonia; [2]): 50 µg/mL | MIC (E. coli DH5α): 12.5 µg/mL | MIC (Aeromonas hydrophila; [2]): 25 µg/mL | MIC (Moraxella catarrhalis; [2]): 25 µg/mL

PRT645 (EINECTVNPDICGAGHCINLPVRYTCICYEGYRFSEQQ; listed as Homo sapiens)
MIC S. marcescens (Serratia marcescens; [3]): 12.5 µg/mL | MIC P. aeruginosa (Pseudomonas aeruginosa; [3]): 12.5 µg/mL | MIC C. diversus (Citrobacter diversus; [3]): 12.5 µg/mL | MIC E. cloacae (Enterobacter cloacae; [3]): 50 µg/mL | MIC P. mirabilis (Proteus mirabilis; [3]): 12.5 µg/mL | MIC E. coli BL21 (E. coli BL21; [3]): 25 µg/mL | MIC P. vulgaris (Proteus vulgaris; [3]): 50 µg/mL | MIC K. pneumonia (Klebsiella pneumonia; [3]): 25 µg/mL | MIC (E. coli DH5α): 50 µg/mL | MIC A. hydrophila (Aeromonas hydrophila; [3]): 25 µg/mL | MIC M. catarrhalis (Moraxella catarrhalis; [3]): 50 µg/mL

PRT930 (NFDDCASNPCIHGICMDGINRYSCVCSPGFTGQRCN; listed as Homo sapiens)
MIC (Serratia marcescens; 10 h cultivation at 37° C.): 50 µg/mL | MIC (Pseudomonas aeruginosa; 10 h cultivation at 37° C.): 25 µg/mL | MIC (Citrobacter diversus; 10 h cultivation at 37° C.): 25 µg/mL | MIC (Enterobacter cloacae; 10 h cultivation at 37° C.): 12.5 µg/mL | MIC (Proteus mirabilis; 10 h cultivation at 37° C.): 25 µg/mL | MIC (E. coli BL21; 10 h cultivation at 37° C.): 12.5 µg/mL | MIC (Proteus vulgaris; 10 h cultivation at 37° C.): 12.5 µg/mL | MIC (Klebsiella pneumonia; 10 h cultivation at 37° C.): 50 µg/mL | MIC (E. coli DH5α): 50 µg/mL | MIC (Aeromonas hydrophila; 10 h cultivation at 37° C.): 25 µg/mL | MIC (Moraxella catarrhalis; 10 h cultivation at 37° C.): 50 µg/mL

PRT792 (YGVLCAETCQCVNGGKCYHVSGACLCEAGFAGERCE; listed as Homo sapiens)
MIC (μg/mL) S. marcescens (Serratia marcescens; [2]): 50 µg/mL | MIC (μg/mL) P. aeruginosa (Pseudomonas aeruginosa; [2]): 12.5 µg/mL | MIC (μg/mL) C. diversus (Citrobacter diversus; [2]): 25 µg/mL | MIC (μg/mL) E. cloacae (Enterobacter cloacae; [2]): 25 µg/mL | MIC (μg/mL) P. mirabilis (Proteus mirabilis; [2]): 50 µg/mL | MIC (μg/mL) E. coli BL21 (E. coli BL21; [2]): 50 µg/mL | MIC (μg/mL) P. vulgaris (Proteus vulgaris; [2]): 12.5 µg/mL | MIC (μg/mL) K. pneumonia (Klebsiella pneumonia; [2]): 12.5 µg/mL | MIC (E. coli DH5α): 12.5 µg/mL | MIC (μg/mL) A. hydrophila (Aeromonas hydrophila; [2]): 50 µg/mL | MIC (μg/mL) M. catarrhalis (Moraxella catarrhalis; [2]): 12.5 µg/mL

PRT719 (CNNPCEQFNGGCSHICAPGPNGAECQCPHEGNWYLANNRKHCI; listed as Homo sapiens)
MIC S. marcescens (Serratia marcescens; [3]): 50 µg/mL | MIC P. aeruginosa (Pseudomonas aeruginosa; [3]): 50 µg/mL | MIC C. diversus (Citrobacter diversus; [3]): 50 µg/mL | MIC E. cloacae (Enterobacter cloacae; [3]): 50 µg/mL | MIC P. mirabilis (Proteus mirabilis; [3]): 50 µg/mL | MIC E. coli BL21 (E. coli BL21; [3]): 12.5 µg/mL | MIC P. vulgaris (Proteus vulgaris; [3]): 50 µg/mL | MIC K. pneumonia (Klebsiella pneumonia; [3]): 12.5 µg/mL | MIC (E. coli DH5α): 50 µg/mL | MIC A. hydrophila (Aeromonas hydrophila; [3]): 12.5 µg/mL | MIC M. catarrhalis (Moraxella catarrhalis; [3]): 50 µg/mL

PRT262 (CLIHHGGCHIHAECIPTGPQQVSCSCREGYSGDGIRTC; listed as Homo sapiens)
MIC (μg/mL) S. marcescens (Serratia marcescens; [2]): 12.5 µg/mL | MIC (μg/mL) P. aeruginosa (Pseudomonas aeruginosa; [2]): 50 µg/mL | MIC (μg/mL) C. diversus (Citrobacter diversus; [2]): 50 µg/mL | MIC (μg/mL) E. cloacae (Enterobacter cloacae; [2]): 12.5 µg/mL | MIC (μg/mL) P. mirabilis (Proteus mirabilis; [2]): 12.5 µg/mL | MIC (μg/mL) E. coli BL21 (E. coli BL21; [2]): 25 µg/mL | MIC (μg/mL) P. vulgaris (Proteus vulgaris; [2]): 25 µg/mL | MIC (μg/mL) K. pneumonia (Klebsiella pneumonia; [2]): 25 µg/mL | MIC (E. coli DH5α): 12.5 µg/mL | MIC (μg/mL) A. hydrophila (Aeromonas hydrophila; [2]): 25 µg/mL | MIC (μg/mL) M. catarrhalis (Moraxella catarrhalis; [2]): 25 µg/mL

PRT708 (QYYVCHHYCVNSESCTIGDDGSVECVCPTRYEGPKCE; listed as Homo sapiens)
MIC S. marcescens (Serratia marcescens; [3]): 50 µg/mL | MIC P. aeruginosa (Pseudomonas aeruginosa; [3]): 50 µg/mL | MIC C. diversus (Citrobacter diversus; [3]): 50 µg/mL | MIC E. cloacae (Enterobacter cloacae; [3]): 50 µg/mL | MIC P. mirabilis (Proteus mirabilis; [3]): 50 µg/mL | MIC E. coli BL21 (E. coli BL21; [3]): 25 µg/mL | MIC P. vulgaris (Proteus vulgaris; [3]): 12.5 µg/mL | MIC K. pneumonia (Klebsiella pneumonia; [3]): 25 µg/mL | MIC (E. coli DH5α): 50 µg/mL | MIC A. hydrophila (Aeromonas hydrophila; [3]): 12.5 µg/mL | MIC M. catarrhalis (Moraxella catarrhalis; [3]): 12.5 µg/mL

PRT1090 (NNTRCLSNSCQNNSTCKDFSKDNDCSCSDTANNLDKDCD; listed as Homo sapiens)
MIC S. marcescens (Serratia marcescens; [1]): 25 µg/mL | MIC P. aeruginosa (Pseudomonas aeruginosa; [1]): 50 µg/mL | MIC C. diversus (Citrobacter diversus; [1]): 25 µg/mL | MIC E. cloacae (Enterobacter cloacae; [1]): 50 µg/mL | MIC P. mirabilis (Proteus mirabilis; [1]): 25 µg/mL | MIC E. coli BL21 (E. coli BL21; [1]): 12.5 µg/mL | MIC P. vulgaris (Proteus vulgaris; [1]): 12.5 µg/mL | MIC K. pneumonia (Klebsiella pneumonia; [1]): 12.5 µg/mL | MIC (E. coli DH5α): 25 µg/mL | MIC A. hydrophila (Aeromonas hydrophila; [1]): 12.5 µg/mL | MIC M. catarrhalis (Moraxella catarrhalis; [1]): 50 µg/mL

PRT398 (DDNECHAQPDLCVNGRCVNTAGSFRCDCDEGFQPSPTLTECH; listed as Homo sapiens)
MIC (Serratia marcescens; [2]): 100 µg/mL | MIC (Pseudomonas aeruginosa; [2]): 50 µg/mL | MIC (Citrobacter diversus; [2]): 50 µg/mL | MIC (Enterobacter cloacae; [2]): 50 µg/mL | MIC (Proteus mirabilis; [2]): 12.5 µg/mL | MIC (E. coli BL21; [2]): 12.5 µg/mL | MIC (Proteus vulgaris; [2]): 12.5 µg/mL | MIC (Klebsiella pneumonia; [2]): 12.5 µg/mL | MIC (E. coli DH5α): 50 µg/mL | MIC (Aeromonas hydrophila; [2]): 12.5 µg/mL | MIC (Moraxella catarrhalis; [2]): 12.5 µg/mL

PRT569 (CDCDLGGALNNSCFAESGQCSCRPHMIGRQC; listed as Homo sapiens)
MIC against S. marcescens (Serratia marcescens; [3]): 12.5 µg/mL | MIC against P. aeruginosa (Pseudomonas aeruginosa; [3]): 25 µg/mL | MIC against C. diversus (Citrobacter diversus; [3]): 100 µg/mL | MIC against E. cloacae (Enterobacter cloacae; [3]): 12.5 µg/mL | MIC against P. mirabilis (Proteus mirabilis; [3]): 12.5 µg/mL | MIC against E. coli BL21 (E. coli BL21; [3]): 12.5 µg/mL | MIC against P. vulgaris (Proteus vulgaris; [3]): 25 µg/mL | MIC against K. pneumonia (Klebsiella pneumonia; [3]): 12.5 µg/mL | MIC (E. coli DH5α): 25 µg/mL | MIC against A. hydrophila (Aeromonas hydrophila; [3]): 25 µg/mL | MIC against M. catarrhalis (Moraxella catarrhalis; [3]): 25 µg/mL
